Experimental data published in PMC5259782, “Allosteric Inhibition of Phosphoenolpyruvate Carboxylases is Determined by a Single Amino Acid Residue in Cyanobacteria” (Scientific Reports, 2017).

How the values were obtained:
Assay in all cases: malate dehydrogenase-coupled NADH assay, residual activity
Format in all cases: biochemical
SyPEPC = target: T1, SyPEPC (Synechocystis sp. PCC 6803, UniProt P74299); details: read-out: SyPEPC activity (in vitro)
T1 construct: gene ppc
T1 sequence (P74299 1-1034): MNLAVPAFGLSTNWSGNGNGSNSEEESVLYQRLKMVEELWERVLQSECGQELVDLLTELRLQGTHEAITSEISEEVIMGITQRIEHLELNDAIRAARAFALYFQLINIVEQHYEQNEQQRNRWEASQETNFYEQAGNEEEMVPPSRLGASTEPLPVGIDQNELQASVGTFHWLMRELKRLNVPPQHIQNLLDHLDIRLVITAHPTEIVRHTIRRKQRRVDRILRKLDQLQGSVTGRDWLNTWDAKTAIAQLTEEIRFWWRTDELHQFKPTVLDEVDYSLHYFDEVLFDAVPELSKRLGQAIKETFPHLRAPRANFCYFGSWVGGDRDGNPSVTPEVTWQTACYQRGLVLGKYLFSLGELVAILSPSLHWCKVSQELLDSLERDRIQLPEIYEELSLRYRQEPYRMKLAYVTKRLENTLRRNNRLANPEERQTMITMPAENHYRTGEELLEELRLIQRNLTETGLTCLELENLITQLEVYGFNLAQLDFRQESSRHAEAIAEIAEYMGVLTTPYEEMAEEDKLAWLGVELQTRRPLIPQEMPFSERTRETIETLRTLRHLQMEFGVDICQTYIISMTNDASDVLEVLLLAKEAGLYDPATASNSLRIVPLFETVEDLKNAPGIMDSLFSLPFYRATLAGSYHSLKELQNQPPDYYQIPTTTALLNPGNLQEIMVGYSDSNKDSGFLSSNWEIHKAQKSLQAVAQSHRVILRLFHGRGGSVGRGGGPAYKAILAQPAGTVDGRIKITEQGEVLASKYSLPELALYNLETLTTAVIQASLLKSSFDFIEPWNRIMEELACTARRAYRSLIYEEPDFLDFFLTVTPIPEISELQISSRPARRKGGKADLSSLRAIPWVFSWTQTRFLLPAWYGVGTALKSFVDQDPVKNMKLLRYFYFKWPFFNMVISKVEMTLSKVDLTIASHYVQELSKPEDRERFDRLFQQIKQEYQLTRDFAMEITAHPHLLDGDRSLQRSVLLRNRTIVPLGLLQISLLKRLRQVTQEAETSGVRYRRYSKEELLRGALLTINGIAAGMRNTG
Text: malate dehydrogenase-coupled NADH assay, residual activity on SyPEPC

AnPEPC [1] = target: T2, AnPEPC (Nostoc sp. PCC 7120 = FACHB-418, UniProt P28594, K946E); details: aspartate; allosteric
T2 construct: gene ppc
T2 sequence (P28594 whole entry K946E): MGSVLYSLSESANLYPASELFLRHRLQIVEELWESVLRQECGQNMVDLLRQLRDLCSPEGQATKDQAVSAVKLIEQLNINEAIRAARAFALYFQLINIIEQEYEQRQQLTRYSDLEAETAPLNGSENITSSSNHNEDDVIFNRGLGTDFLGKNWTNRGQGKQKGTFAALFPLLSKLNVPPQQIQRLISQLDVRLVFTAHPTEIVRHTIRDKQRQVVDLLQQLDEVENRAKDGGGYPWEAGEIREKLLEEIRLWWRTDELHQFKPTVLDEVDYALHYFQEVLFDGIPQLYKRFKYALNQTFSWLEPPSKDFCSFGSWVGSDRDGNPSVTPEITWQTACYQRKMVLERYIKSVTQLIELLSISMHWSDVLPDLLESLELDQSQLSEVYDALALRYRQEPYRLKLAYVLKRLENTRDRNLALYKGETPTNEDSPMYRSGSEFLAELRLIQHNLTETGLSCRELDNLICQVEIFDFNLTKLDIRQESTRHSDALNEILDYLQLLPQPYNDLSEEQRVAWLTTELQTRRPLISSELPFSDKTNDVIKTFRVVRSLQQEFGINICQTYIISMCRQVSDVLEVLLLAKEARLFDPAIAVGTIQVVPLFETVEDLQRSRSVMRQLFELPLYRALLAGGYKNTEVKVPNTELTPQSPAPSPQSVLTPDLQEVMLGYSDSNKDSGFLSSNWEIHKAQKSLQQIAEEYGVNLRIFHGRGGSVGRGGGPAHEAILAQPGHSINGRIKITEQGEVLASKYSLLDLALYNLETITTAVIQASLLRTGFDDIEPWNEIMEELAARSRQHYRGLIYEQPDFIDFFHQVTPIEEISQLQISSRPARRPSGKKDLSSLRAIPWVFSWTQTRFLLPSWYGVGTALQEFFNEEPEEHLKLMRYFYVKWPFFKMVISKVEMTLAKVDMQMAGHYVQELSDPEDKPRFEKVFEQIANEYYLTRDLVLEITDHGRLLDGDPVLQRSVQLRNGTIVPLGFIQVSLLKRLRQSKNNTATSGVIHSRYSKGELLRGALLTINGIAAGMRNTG

AnPEPC [2] = target: T3, AnPEPC (Nostoc sp. PCC 7120 = FACHB-418, UniProt P28594); details: aspartate; allosteric
T3 construct: gene ppc
T3 sequence (P28594 whole entry): as the sequence (P28594 whole entry K946E) above, with E946K counted along it

- activity at 1000 µM (SyPEPC): 85.2 ± 10.7%
SMILES: N[C@@H](CC(=O)O)C(=O)O [aspartate]
- % activity remaining (AnPEPC [1]): The inhibitory effect of aspartate on AnPEPC was not altered by this amino acid substitution
- % activity remaining (AnPEPC [2]): The inhibitory effect of aspartate on AnPEPC was not altered by this amino acid substitution
